Data on ten compounds can be found in US20250230193A1, “CYCLIC COMPOUND HAVING SELECTIVE KRAS INHIBITORY EFFECT ON HRAS AND NRAS” (CHUGAI SEIYAKU KABUSHIKI KAISHA, priority 2022, published 2025).

For assay [1], the target named is GDP-bound HRAS wild-type protein (Homo sapiens, UniProt P01112). Description: Binding to HRAS by surface plasmon resonance (SPR), Single Cycle Kinetics. As to conditions: SPR; KD ratio class.
Assay [2] deals with GDP-bound NRAS wild-type protein (Homo sapiens, UniProt P01111). Description: Binding to NRAS by surface plasmon resonance (SPR), Single Cycle Kinetics. The settings on record: SPR; KD ratio class. (SPR reads the build-up and loss of mass on a sensor chip optically.)
Assay [3] relates to human lung cancer strain NCI-H441. Kind of assay: cells. The settings on record: NCI-H441, 96 h, read-out: NCI-H441 IC50 (nM).

Sequence of GDP-bound HRAS wild-type protein (P01112 whole entry): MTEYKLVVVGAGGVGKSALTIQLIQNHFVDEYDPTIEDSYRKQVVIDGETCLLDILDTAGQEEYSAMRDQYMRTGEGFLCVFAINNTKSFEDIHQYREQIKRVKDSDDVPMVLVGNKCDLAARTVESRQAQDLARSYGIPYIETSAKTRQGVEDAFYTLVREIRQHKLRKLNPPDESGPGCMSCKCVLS
Sequence of GDP-bound NRAS wild-type protein (P01111 whole entry): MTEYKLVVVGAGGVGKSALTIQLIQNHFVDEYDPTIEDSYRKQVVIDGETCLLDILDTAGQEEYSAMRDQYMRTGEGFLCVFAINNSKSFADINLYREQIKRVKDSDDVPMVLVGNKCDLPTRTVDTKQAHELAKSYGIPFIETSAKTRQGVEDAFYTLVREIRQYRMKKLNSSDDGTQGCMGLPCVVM

With `CCO[C@@H]1C[C@H]2C(=O)NC3(CCCC3)C(=O)N(C)[C@@H](C3CCCC3)C(=O)N(C)[C@H](C(=O)N(C)C)CC(=O)N(C)[C@@H](CC)C(=O)N[C@@H]([C@@H](C)CC)C(=O)N(C)CC(=O)N(C)[C@H]3C[C@@H](C)[C@@H](C)CN(C3=O)[C@@H](Cc3ccc(C(F)(F)F)cc3)C(=O)N(C)CC(=O)N[C@@H](CCc3ccc(C(F)(F)F)c(Cl)c3)C(=O)N2C1` [PP1358], in assay [1], the “HRAS/KRAS (ratio of KD value for GDP-bound HRAS wild-type protein to KD value for KRAS)” value was “B (a compound having 3 or more and less than 10 is denoted as B)”. For the same compound, the “NRAS/KRAS (ratio of KD value for GDP-bound NRAS wild-type protein to KD value for KRAS)” value in assay [2] is “A (a compound having 10 or more and less than 20 is denoted as A)”. The IC50 in assay [3] is 4.1 nM.

Regarding `CCO[C@@H]1C[C@H]2C(=O)NC3(CCCC3)C(=O)N(C)[C@@H](C3CCCC3)C(=O)N(C)[C@H](C(=O)N3CCOCC3)CC(=O)N(C)[C@@H](CC)C(=O)N[C@@H]([C@@H](C)CC)C(=O)N(C)CC(=O)N(C)[C@H]3C[C@@H](C)[C@@H](C)CN(C3=O)[C@@H](Cc3ccc(C(F)(F)F)cc3)C(=O)N(C)CC(=O)N[C@@H](CCc3ccc(C(F)(F)F)c(Cl)c3)C(=O)N2C1` [PP1359], the “HRAS/KRAS (ratio of KD value for GDP-bound HRAS wild-type protein to KD value for KRAS)” value in assay [1] is “B (a compound having 3 or more and less than 10 is denoted as B)”. In assay [2], the “NRAS/KRAS (ratio of KD value for GDP-bound NRAS wild-type protein to KD value for KRAS)” value is “A (a compound having 10 or more and less than 20 is denoted as A)”. In addition, the IC50 in assay [3] turned out to be 3.2 nM.

`CCO[C@@H]1C[C@H]2C(=O)NC3(CCC3)C(=O)N(C)[C@@H](C3CCCC3)C(=O)N(C)[C@H](C(=O)N3CCOCC3)CC(=O)N(C)[C@@H](CC)C(=O)N[C@@H]([C@@H](C)CC)C(=O)N(C)CC(=O)N(C)[C@H]3C[C@@H](C)[C@@H](C)CN(C3=O)[C@@H](Cc3ccc(C(F)(F)F)cc3)C(=O)N(C)CC(=O)N[C@@H](CCc3ccc(C(F)(F)F)c(Cl)c3)C(=O)N2C1` [PP1360]: in assay [1], the “HRAS/KRAS (ratio of KD value for GDP-bound HRAS wild-type protein to KD value for KRAS)” value is “B (a compound having 3 or more and less than 10 is denoted as B)”. The “NRAS/KRAS (ratio of KD value for GDP-bound NRAS wild-type protein to KD value for KRAS)” value in assay [2] was “A (a compound having 10 or more and less than 20 is denoted as A)”. For the same compound, in assay [3], the concentration for half-maximal inhibition (IC50) turned out to be 4.9 nM.

For `CCO[C@@H]1C[C@H]2C(=O)NC3(CCC3)C(=O)N(C)[C@@H](C3CCCC3)C(=O)N(C)[C@H](C(=O)N3CCOCC3)CC(=O)N(C)[C@@H](CC(C)C)C(=O)N[C@@H]([C@@H](C)CC)C(=O)N3CC[C@H]3C(=O)N(C)[C@H]3C[C@@H](C)[C@@H](C)CN(C3=O)[C@@H](Cc3ccc(C(F)(F)F)cc3)C(=O)N(C)CC(=O)N[C@@H](CCc3ccc(C(F)(F)F)c(Cl)c3)C(=O)N2C1` [PP1361], the “HRAS/KRAS (ratio of KD value for GDP-bound HRAS wild-type protein to KD value for KRAS)” value in assay [1] is “B (a compound having 3 or more and less than 10 is denoted as B)”. In assay [2], the “NRAS/KRAS (ratio of KD value for GDP-bound NRAS wild-type protein to KD value for KRAS)” value is “A (a compound having 10 or more and less than 20 is denoted as A)”. In addition, the concentration for half-maximal inhibition (IC50) in assay [3] is 6.2 nM.

Consider `CCO[C@@H]1C[C@H]2C(=O)NC3(CCCC3)C(=O)N(C)[C@@H](C3CCCC3)C(=O)N(C)[C@H](C(=O)N(C)C)CC(=O)N(C)[C@@H](CC3CC3)C(=O)N[C@@H]([C@@H](C)CC)C(=O)N(C)CC(=O)N(C)[C@H]3C[C@@H](C)[C@@H](C)CN(C3=O)[C@@H](Cc3ccc(C(F)(F)F)cc3)C(=O)N(C)CC(=O)N[C@@H](CCc3ccc(C(F)(F)F)c(Cl)c3)C(=O)N2C1` [PP1362], for which the “HRAS/KRAS (ratio of KD value for GDP-bound HRAS wild-type protein to KD value for KRAS)” value in assay [1] was “B (a compound having 3 or more and less than 10 is denoted as B)”. The “NRAS/KRAS (ratio of KD value for GDP-bound NRAS wild-type protein to KD value for KRAS)” value in assay [2] was “A (a compound having 10 or more and less than 20 is denoted as A)”. The IC50 in assay [3] was 3.7 nM.

Turning to `CC[C@H](C)[C@@H]1NC(=O)[C@H](CC)N(C)C(=O)C[C@@H](C(=O)N(C)C)N(C)C(=O)[C@H](C2CCCC2)N(C)C(=O)C2(CCCC2)NC(=O)[C@@H]2CCCN2C(=O)[C@H](CCc2cc(F)c(C(F)(F)F)c(F)c2)NC(=O)CN(C)C(=O)[C@H](Cc2ccc(C(F)(F)F)cc2)N2C[C@H](C)[C@H](C)C[C@@H](C2=O)N(C)C(=O)CN(C)C1=O` [PP1364], the “HRAS/KRAS (ratio of KD value for GDP-bound HRAS wild-type protein to KD value for KRAS)” value in assay [1] was “B (a compound having 3 or more and less than 10 is denoted as B)”. The “NRAS/KRAS (ratio of KD value for GDP-bound NRAS wild-type protein to KD value for KRAS)” value in assay [2] was “A (a compound having 10 or more and less than 20 is denoted as A)”. In addition, the IC50 in assay [3] was 7.1 nM.

`CC[C@H](C)[C@@H]1NC(=O)[C@H](CC)N(C)C(=O)C[C@@H](C(=O)N2CCOCC2)N(C)C(=O)[C@H](C2CCCC2)N(C)C(=O)C2(CCCC2)NC(=O)[C@@H]2CCCN2C(=O)[C@H](CCc2cc(F)c(C(F)(F)F)c(F)c2)NC(=O)CN(C)C(=O)[C@H](Cc2ccc(C(F)(F)F)cc2)N2C[C@H](C)[C@H](C)C[C@@H](C2=O)N(C)C(=O)CN(C)C1=O` [PP1365]: in assay [1], the “HRAS/KRAS (ratio of KD value for GDP-bound HRAS wild-type protein to KD value for KRAS)” value is “B (a compound having 3 or more and less than 10 is denoted as B)”. Besides, the “NRAS/KRAS (ratio of KD value for GDP-bound NRAS wild-type protein to KD value for KRAS)” value in assay [2] was “A (a compound having 10 or more and less than 20 is denoted as A)”. The IC50 in assay [3] is 4.2 nM.

Take `CC[C@H](C)[C@@H]1NC(=O)[C@H](CC)N(C)C(=O)C[C@@H](C(=O)N2CCOCC2)N(C)C(=O)[C@H](C2CCCC2)N(C)C(=O)C2(CCC2)NC(=O)[C@@H]2CCCN2C(=O)[C@H](CCc2cc(F)c(C(F)(F)F)c(F)c2)NC(=O)CN(C)C(=O)[C@H](Cc2ccc(C(F)(F)F)cc2)N2C[C@H](C)[C@H](C)C[C@@H](C2=O)N(C)C(=O)CN(C)C1=O` [PP1366]: the “HRAS/KRAS (ratio of KD value for GDP-bound HRAS wild-type protein to KD value for KRAS)” value in assay [1] is “B (a compound having 3 or more and less than 10 is denoted as B)”. In addition, the “NRAS/KRAS (ratio of KD value for GDP-bound NRAS wild-type protein to KD value for KRAS)” value in assay [2] was “A (a compound having 10 or more and less than 20 is denoted as A)”. Besides, the half-inhibitory concentration (IC50) in assay [3] was 14 nM.

In the case of `CC[C@H](C)[C@@H]1NC(=O)[C@H](CC(C)C)N(C)C(=O)C[C@@H](C(=O)N2CCOCC2)N(C)C(=O)[C@H](C2CCCC2)N(C)C(=O)C2(CCC2)NC(=O)[C@@H]2CCCN2C(=O)[C@H](CCc2cc(F)c(C(F)(F)F)c(F)c2)NC(=O)CN(C)C(=O)[C@H](Cc2ccc(C(F)(F)F)cc2)N2C[C@H](C)[C@H](C)C[C@@H](C2=O)N(C)C(=O)[C@@H]2CCN2C1=O` [PP1367], in assay [1], the “HRAS/KRAS (ratio of KD value for GDP-bound HRAS wild-type protein to KD value for KRAS)” value is “B (a compound having 3 or more and less than 10 is denoted as B)”. In assay [2], the “NRAS/KRAS (ratio of KD value for GDP-bound NRAS wild-type protein to KD value for KRAS)” value is “A (a compound having 10 or more and less than 20 is denoted as A)”. In addition, in assay [3], the half-inhibitory concentration (IC50) was determined as 29.3 nM.

For `CC[C@H](C)[C@@H]1NC(=O)[C@H](CC2CC2)N(C)C(=O)C[C@@H](C(=O)N(C)C)N(C)C(=O)[C@H](C2CCCC2)N(C)C(=O)C2(CCCC2)NC(=O)[C@@H]2CCCN2C(=O)[C@H](CCc2cc(F)c(C(F)(F)F)c(F)c2)NC(=O)CN(C)C(=O)[C@H](Cc2ccc(C(F)(F)F)cc2)N2C[C@H](C)[C@H](C)C[C@@H](C2=O)N(C)C(=O)CN(C)C1=O` [PP1368], the “HRAS/KRAS (ratio of KD value for GDP-bound HRAS wild-type protein to KD value for KRAS)” value in assay [1] is “B (a compound having 3 or more and less than 10 is denoted as B)”. The “NRAS/KRAS (ratio of KD value for GDP-bound NRAS wild-type protein to KD value for KRAS)” value in assay [2] was “A (a compound having 10 or more and less than 20 is denoted as A)”. Further, in assay [3], the IC50 is 2.9 nM.

One may read the IC50 as the midpoint of a concentration-inhibition curve.
